Here are results for one molecule from US20220411414A1, “INHIBITORS FOR THE B-CATENIN/B-CELL LYMPHOMA 9 (BCL9) PROTEIN-PROTEIN INTERACTION” (H. LEE MOFFITT CANCER CENTER AND RESEARCH INSTITUTE, INC., priority 2018, published 2022).

Common to all, as to type: cell-based
Test [1] deals with TOPFlash (three wild-type Tcf binding sites) luciferase reporter. As to the kind of experiment: Wnt-responsive TOPFlash luciferase reporter assay, β-catenin-activated HEK239. The conditions noted are these: 24 h treatment, read-out: TOPFlash IC50 ± SD β-catenin-activated HEK239. Here is the method: (§1) The TOPFlash luciferase reporter assay (in which the luciferase reporter has three wild-type Tcf4 binding sites) was performed with 4 and 5. Cell transfection and luciferase assay. FuGENE6 (E269A, Promega) 96 well plate format was used for the transfection of HEK293 and SW480 cells according to the manufacturer's instruction. HEK293 cells were co-transfected with 45 ng of TOPFlash or FOPFlash reporter gene, 135 ng pcDNA3.1-β-catenin, and 20 ng of pCMV-RL normalization reporter gene. SW480 cells were co-transfected with 60 ng of the TOPFlash or FOPFlash reporter gene and 40 ng of pCMV-RL normalization reporter. Cells were cultured in DMEM and 10% FBS at 37° C. for 24 h, and different concentrations of inhibitors or DMSO was added. After 24 h, the luciferase reporter activity was measured using the Dual-Glo system (E2940, Promega). Normalized luciferase activity in response to the treatment with 4 and 5 was compared with that obtained from the cells treated with DMSO. Experiments were performed in triplicate.
On the technique in general: A reporter such as luciferase makes a cellular process visible.

For test [2], the system named is HCT116. The test can be described thus: MTs growth inhibition assay, HCT116. Particulars: Homo sapiens, HCT-116; Wnt/β-catenin-hyperactive, 72 h; read-out: MTs IC50 ± SD HCT116. As for the experimental part: (§2) MTs cancer cell growth inhibition assays were conducted for 4 and 5. Three cancer cell lines with hyperactive Wnt/β-catenin signaling, SW480, HCT116, and MDA-MB-231. MTs cell viability assay. Colorectal cancer cell lines, SW480 and HCT116, and triple-negative breast cancer cell line MDA-MB-231 were seeded in 96-well plates at 4×10^3 cells/well, maintained overnight at 37° C., and incubated in the presence of 4 and 5 at various concentrations. Cell viability was monitored after 72 h using a freshly prepared mixture of 1 part phenazine methosulfate (PMS, Sigma) solution (0.92 mg/mL) and 19 parts 3-(4,5-dimethylthiazol-2-yl)-5-(3-carboxymethoxyphenyl)-2-(4-sulfophenyl)-2H-tetrazolium (MTs, Promega) solution (2 mg/mL). Cells were incubated in 10 μL of this solution at 37° C. for 3 h, and A490 was measured. The effect of each compound is expressed as the concentration required to reduce A490 by 50% (IC50) relative to vehicle-treated cells. Experiments were performed in triplicate.

Test [3] relates to FOPFlash (three mutant Tcf4 binding sites) luciferase reporter. As to the kind of experiment: FOPFlash luciferase reporter assay. The conditions noted are these: FIG. 1. As for the experimental part:
as §1, with “Cell” for “The TOPFlash luciferase reporter assay (in which the luciferase reporter has three wild-type Tcf4 binding sites) was performed with 4 and 5. Cell”

In test [4] the test system is A549. As to the kind of experiment: MTs growth inhibition assay, A549 (Wnt-latent). The conditions noted are these: Homo sapiens, read-out: MTs IC50 ± SD A549.
For test [5], the system named is SW480. As to the kind of experiment: MTs growth inhibition assay, SW480. The conditions noted are these: Homo sapiens, Wnt/β-catenin-hyperactive, 72 h, read-out: MTs IC50 ± SD SW480. As for the experimental part:
as §2

For test [6], the system named is protein expression of cyclin D1, c-myc, ABC, total β-catenin. As to the kind of experiment: Western blot analysis in SW480 cells. Particulars: SW480, 24 h, FIG. 3. Here is the method:
Protein expression levels of cyclin D1, c-myc, the active form of β-catenin (ABC), and total β-catenin in SW480 cells were examined by Western blot analysis (FIG. 3). […] Western blotting. SW480 cells at 1×10^6 cells/[…] were treated with different concentrations of 4 for 24 h. Cells were lysed in buffer containing 50 mM Tris (pH 7.4), 150 mM NaCl, 1% Nonidet P-40, 0.5% sodium deoxycholate, 0.1% SDS, and protease inhibitors. After centrifugation at 12,000 rpm for 20 min at 4° C., the supernatant was loaded onto an 8% SDS polyacrylamide gel for electrophoretic analysis. Separated proteins were transferred onto nitrocellulose membranes for immunoblot analysis. The antibodies against total β-catenin (610153, BD Biosciences, most of which is phosphorylated β-catenin and represents the E-cadherin bound pool), the active form of β-catenin (ABC, 05-665, EMD Millipore, dephosphorylated at positions S37 and T41 of β-catenin), cyclin D1 (sc-853, Santa Cruz Biotechnology, Inc.), c-myc (D84C12, Cell Signaling), and β-tubulin (sc-55529, Santa Cruz Biotechnology, Inc) were incubated with the membranes overnight at 4° C. respectively. IRDye 680LT goat anti-mouse IgG (827-11080, LiCOR) or IRDye 800CW goat anti-rabbit IgG (827-08365, LiCOR) was used as the secondary antibody. The images were detected by the Odyssey Infrared Imaging System (LiCOR). Experiments were performed in duplicate.
(A western blot detects proteins with antibodies after separation by electrophoresis.)

A word on the IC50: it is the concentration that inhibits the measured activity by half. For `Cl.Cl.O=C(Nc1ccc(O[C@@H]2CCNC2)c(-c2cccc(-c3nn[nH]n3)c2)c1)c1ccc(O[C@H]2CCNC2)c(-c2ccc(F)c(F)c2)c1` [Compound 4, 3′,4′-difluoro-6-(((S)-pyrrolidin-3-yl)oxy)-N-(6-(((R)-pyrrolidin-3-yl)oxy)-3′-(2H-tetrazol-5-yl)-[1,1′-biphenyl]-3-yl)-[1,1′-biphenyl]-3-carboxamide dihydrochloride], the half-maximal inhibitory concentration (IC50) in test [1] was 25 ± 4.1 µM. Further, the half-maximal inhibitory concentration (IC50) in test [2] was 55 ± 7.4 µM. Further, the FOPFlash luciferase activity entry in test [3] was “did not inhibit”. The 50% inhibitory concentration (IC50) in test [4] is more than 400 µM. In addition, in test [5], the IC50 amounted to 41 ± 6.2 µM. Also, in test [6], the “E-cadherin-bound β-catenin (total β-catenin)” value is listed as “had no effect”, the “activated β-catenin (ABC) in the cell nucleus” value is on record as “reduced”, the “protein expression level of c-myc” value was “significantly reduced” and the “protein expression level of cyclin D1” value is on record as “significantly reduced”.
